# Data reported in patent publication US20240150321A1, “PYRAZOLYLSULFONAMIDE COMPOUNDS AND THEIR USE IN THERAPY” (HOTSPOT THERAPEUTICS, INC., priority 2022, published 2024).
# pIC50: −log10 of the molar value. Read-outs that look alike come from different tables or passages of the source.
# Key:
# [1] = tested on: NF-kB reporter in Jurkat cells; experiment: NF-kB reporter assay in Jurkat cells stimulated with aCD3/aCD28/PMA; assay type: cell-based; conditions: Jurkat cells, 1 hr compound pre-incubation, aCD3/aCD28/PMA stimulation 4 hr, One-Glo readout, read-out: NF-kB Reporter Assay IC50
# Procedure: Jurkat cells were maintained in complete RPMI 1640 media supplemented with 10% FBS. Prior to the assay, 120 nL of the serial diluted compound was added in each well of 384-well flat bottom white plate (Corning #3570) by using liquid handler Echo550. Jurkat cells were harvested by centrifugation at 120 g for 10 min and resuspended in fresh RPMI 1640 media without serum. […] (25,000 cells) were seeded in each well of 384-well plate containing compound. After 1 hr incubation at 37° C. in a 5% CO2 incubator, […] of diluted aCD3/aCD28/PMA (final concentration at […] and […], respectively) in RPMI 1640 without serum were added to each well. After incubation at 37° C. in 5% CO2 for 4 hr, […] of One-Glo reagent (Promega #E6120) was added into each well. The plate was left at room temperature for 5 min and the signal was measured on EnVision (PerkinElmer).
# Compounds in which an IC50 was not measured are designated as “N/A”.
# Avi-tagged FL MALT-1 = Avi-tagged FL MALT-1 (Homo sapiens (Human), UniProt Q9UDY8); experiment: MALT-1 Fluorogenic Peptide Cleavage Assay (MALT1 inhibition assay); assay type: biochemical; conditions: Ac-LRSR-AMC peptide substrate, 30 min pre-incubation, 90 min reaction at room temperature
# Avi-tagged FL MALT-1, sequence (Q9UDY8 whole entry): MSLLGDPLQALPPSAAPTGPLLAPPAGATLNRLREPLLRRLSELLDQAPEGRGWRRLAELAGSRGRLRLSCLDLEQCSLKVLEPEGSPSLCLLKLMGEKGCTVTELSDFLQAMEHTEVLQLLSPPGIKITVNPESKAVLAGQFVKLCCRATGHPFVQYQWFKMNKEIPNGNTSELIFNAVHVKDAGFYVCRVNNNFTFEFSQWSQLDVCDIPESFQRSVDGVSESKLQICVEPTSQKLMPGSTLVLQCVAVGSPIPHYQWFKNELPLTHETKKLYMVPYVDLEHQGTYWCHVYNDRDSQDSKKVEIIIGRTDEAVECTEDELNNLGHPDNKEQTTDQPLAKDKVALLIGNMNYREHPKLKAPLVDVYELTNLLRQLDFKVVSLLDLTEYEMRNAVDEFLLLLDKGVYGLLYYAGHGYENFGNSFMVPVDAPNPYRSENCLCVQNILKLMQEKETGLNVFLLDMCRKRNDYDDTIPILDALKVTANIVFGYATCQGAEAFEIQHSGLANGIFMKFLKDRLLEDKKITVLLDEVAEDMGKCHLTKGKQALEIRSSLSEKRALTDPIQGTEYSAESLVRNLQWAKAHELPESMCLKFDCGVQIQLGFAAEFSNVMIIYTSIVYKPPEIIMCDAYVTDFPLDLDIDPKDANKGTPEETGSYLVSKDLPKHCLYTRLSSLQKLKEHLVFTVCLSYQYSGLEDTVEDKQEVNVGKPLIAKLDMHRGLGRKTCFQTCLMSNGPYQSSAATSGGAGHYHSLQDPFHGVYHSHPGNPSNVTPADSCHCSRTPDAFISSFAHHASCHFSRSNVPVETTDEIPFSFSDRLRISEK
# Procedure: Inhibition of MALT1 activity by the presence of small molecules was evaluated using MALT-1 Fluorogenic Peptide Cleavage Assay. The assay utilizes a quenched AMC-labelled peptide that contains the MALT-1 recognition sequence and cleavage site (LRSR). MALT-1 mediated cleavage of the peptide relieves the quenching and leads to an increase in fluorescence at excitation (342 nm) and emission (441 nm).
# The following reagents were obtained commercially and used to prepare standard reagent formulations as further described below: N-2-hydroxyethylpiperazine-N-2-ethane sulfonic acid (HEPES) (1 M, pH 7.5, stored at 4° C.), sodium citrate (stored at RT), tris(2-carboxyethyl) phosphine hydrochloride (T-CEP) (500 mM, stored at −20° C.), ethylenediaminetetraacetic acid (EDTA) (500 mM, stored at RT), dimethylsulfoxide (DMSO, stored at RT), 3-[(3-cholamido-propyl)dimethylammonio]-1-propane sulphate (CHAPS) (stored at RT), dimethylsulfoxide (DMSO), DMSO (Fisher Scientific, stored at RT), Avi-tagged FL MALT-1 (Pharmaron, stored at −70° C.), Ac-LRSR-AMC Peptide (SM Biochemicals, stored at −20° C.)., and ultrapure water (MILLLI-Q©).
# The standard reagent formulations used in this assay were prepared and stored as follows. A 1.1 M solution of sodium citrate (161.3 g, 500 mL) was prepared and stored at room temperature. A 10% (w/v) CHAPS solution (2.0 g, 20 mL) was prepared and stored at 4° C. A 500 mM HEPES solution having pH of 6.89 was prepared from 200 mL of a 1 M HEPES solution having a pH of 7.5 using concentrated hydrochloric acid and brought to a final volume of 400 mL with MILLI-Q© H2O. The substrate, 10 mM Ac-LRSR-AMC Peptide, was prepared (10 mg, 1.370 mL DMSO) and stored at −20° C.
# Compounds were plated to provide a 2% DMSO final concentration using a ProxiPlate-384 Plus F Black 384-shallow well microplate. The assay-ready plates were equilibrated to room temperature. A reaction buffer (30 mL total volume) was prepared by combining HEPES (pH 6.89, 25 mM, 1.5 mL), sodium citrate (660 mM, 18.0 mL), T-CEP (1 mM, 0.06 mL), EDTA ([…], 0.06 mL), CHAPS (0.05%, 0.15 mL), DMSO (2%, 0.6 mL), and MILLI-Q© H2O (10.23 mL; 9.63 mL when backfilled to 2% DMSO) followed by thorough mixing. DMSO was added only when compound plates had not been DMSO-backfilled to 2%.
# MALT-1 was thawed and kept on ice. Peptide substrate was thawed on the bench under ambient conditions. A MALT-1 enzyme working stock was prepared from Avi-tagged FL MALT-1 (40 nM in a prepared reagent volume of 16.5 μL) and the reaction buffer (13.0 mL). MALT1 working stock (5 μL) was added to each well of the microplate. MALT-1 was pre-incubated with compounds for 30 minutes at room temperature.
# Two substrate working stocks (Km and 10×Km) were prepared. The 1×Km substrate was prepared from Ac-LRSR-AMC Peptide (50 μM in a prepared reagent volume of 35.0 μL) and the reaction buffer (6.965 mL). The 10×Km substrate was prepared from Ac-LRSR-AMC Peptide (280 μM in a prepared reagent volume of 196.0 μL) and the reaction buffer (6.804 mL). The reaction was initiated by the addition of substrate working stock (5 μL, 50 μM) to Km plates and the addition of substrate working stock (5 μL 280 μM) to 10×Km plates. The plates were covered and incubated on the bench at room temperature for 90 minutes.
# Fluorescence intensity was determined using a CLARIOstar microplate reader (BMG LABTECH) using the optimised AMC mode. Before taking readings, a 70% gain was applied on the neutral control well. Compound data were normalised to % Inhibition and used to plot sigmoidal concentration response curves to yield various parameters including IC50.
Structure (SMILES),pIC50 ([1]; Homo sapiens),pIC50 (Avi-tagged FL MALT-1),pIC50 [1]
COc1ccc2cnn(C)c2c1NS(=O)(=O)c1cnn(-c2cc(N3CC(C#N)C3)ccn2)c1 [Compound I-454],6.00 to 6.40,< 5.60,
"CCc1ccc2cnn(C)c2c1NS(=O)(=O)c1cnn(-c2cc(C(C)(C)O)ccn2)c1 [Compound I-274, N-(6-ethyl-1-methyl-1H-indazol-7-yl)-1-(4-(2-hydroxypropan-2-yl)pyridin-2-yl)-1H-pyrazole-4-sulfonamide]",> 6.40,≥ 6.40,
"CCc1ccc2cnn(C)c2c1NS(=O)(=O)c1cnn(-c2ccnc(C3CC3)c2)c1 [Compound I-33, 1-(2-Cyclopropylpyridin-4-yl)-N-(6-ethyl-1-Methyl-1H-Indazol-7-yl)-1H-Pyrazole-4-Sulfonamide]",> 6.40,≥ 6.40,
COCC(F)(F)c1ccnc(-n2cc(S(=O)(=O)Nc3cccc4cnn(C)c34)cn2)c1 [Compound I-268],> 6.40,< 5.60,
CC[C@@H](OC)c1ccnc(-n2cc(S(=O)(=O)Nc3cccc4cnn(C)c34)cn2)c1 [Compound I-298],> 6.40,< 5.60,
"CCc1ccc2[nH]nc(C)c2c1N(C)S(=O)(=O)c1cnn(-c2ccnc(C(F)(F)F)c2)c1 [Compound I-62, N-(5-Ethyl-3-Methyl-1H-Indazol-4-yl)-N-Methyl-1-(2-(Trifluoromethyl)Pyridin-4-yl)-1H-Pyrazole-4-Sulfonamide]",6.00 to 6.40,≥ 6.40,
COC[C@H](OC)c1ccnc(-n2cc(S(=O)(=O)Nc3cccc4cnn(C)c34)cn2)c1 [Compound I-342],6.00 to 6.40,< 5.60,
"COc1ccc2cnn(C)c2c1NS(=O)(=O)c1cn(-c2cc(C(F)(F)F)ccn2)nc1C [Compound I-83, N-(6-Methoxy-1-Methyl-1H-Indazol-7-yl)-3-Methyl-1-(4-(Trifluoromethyl)Pyridin-2-yl)-1H-Pyrazole-4-Sulfonamide]",> 6.40,≥ 6.40,
COc1ccc2cnn(C)c2c1NS(=O)(=O)c1cnn(-c2cc(N3CC(C)(C#N)C3)ccn2)c1 [Compound I-461],6.00 to 6.40,< 5.60,
"CCC(C)(OC)c1ccnc(-n2cc(S(=O)(=O)Nc3c(OC)ccc4cnn(C)c34)cn2)c1 (single isomer, unassigned) [Compound I-361, N-(6-methoxy-1-methyl-1H-indazol-7-yl)-1-(4-(2-methoxybutan-2-yl)pyridin-2-yl)-1H-pyrazole-4-sulfonamide]",,≥ 6.40,> 6.40
"Cc1c(S(=O)(=O)Nc2cccc3cnn(C)c23)cnn1-c1cc(C(F)(F)F)ccn1 [Compound I-137, 5-methyl-N-(1-methyl-1H-indazol-7-yl)-1-(4-(trifluoromethyl)pyridin-2-yl)-1H-pyrazole-4-sulfonamide]",> 6.40,6.00 to 6.40,
"COc1cc(NS(=O)(=O)c2cnn(-c3ccnc(C(F)(F)F)c3)c2)c2c(cnn2C)c1 [Compound I-58, N-(5-Methoxy-1-Methyl-1H-Indazol-7-yl)-1-(2-(Trifluoromethyl)Pyridin-4-yl)-1H-Pyrazole-4-Sulfonamide]",< 5.60,< 5.60,
"Cn1ncc2cccc(NS(=O)(=O)c3cnn(-c4cccc(C(F)(F)F)n4)c3)c21 [Compound I-13, N-(1-Methyl-1H-Indazol-7-yl)-1-(6-(Trifluoromethyl)Pyridin-2-yl)-1H-Pyrazole-4-Sulfonamide]",,< 5.60,

# More lines, now with the values ahead:
pIC50 ([1]; Homo sapiens),pIC50 (Avi-tagged FL MALT-1),pIC50 [1],Structure (SMILES)
> 6.40,≥ 6.40,,"COc1ccc2cnn(C)c2c1NS(=O)(=O)c1cnn(-c2cc(C)ccn2)c1 [Compound I-35, N-(6-Methoxy-1-Methyl-1H-Indazol-7-yl)-1-(4-Methylpyridin-2-yl)-1H-Pyrazole-4-Sulfonamide]"
> 6.40,< 5.60,,"Cc1ccnc(-n2cc(S(=O)(=O)Nc3cccc4[nH]nc(C)c34)cn2)c1 [Compound I-63, N-(3-Methyl-1H-Indazol-4-yl)-1-(4-Methylpyridin-2-yl)-1H-Pyrazole-4-Sulfonamide]"
,5.60 to 6.00,,"CCc1ccc2cnn(C)c2c1NS(=O)(=O)c1cnn(-c2ccnc(C(F)(F)F)n2)c1 [Compound I-11, N-(6-Ethyl-1-Methyl-1H-Indazol-7-yl)-1-(2-(Trifluoromethyl) Pyrimidin-4-yl)-1H-Pyrazole-4-Sulfonamide]"
5.60 to 6.00,5.60 to 6.00,,"CCc1ccc2cnn(C)c2c1NS(=O)(=O)c1cnn(-c2ccnc(OC(F)(F)F)c2)c1 [Compound I-61, N-(6-Ethyl-1-Methyl-1H-Indazol-7-yl)-1-(2-(Trifluoromethoxy) Pyridin-4-yl)-1H-Pyrazole-4-Sulfonamide]"
> 6.40,≥ 6.40,,"COc1ncc2cnn(C)c2c1NS(=O)(=O)c1cnn(-c2cc(C3(F)COC3)ccn2)c1 [Compound I-124, 1-(4-(3-fluorooxetan-3-yl)pyridin-2-yl)-N-(6-methoxy-1-methyl-1H-pyrazolo[4,3-c]pyridin-7-yl)-1H-pyrazole-4-sulfonamide]"
> 6.40,< 5.60,,Cn1ncc2cccc(NS(=O)(=O)c3cnn(-c4cc(C5(C#N)COC5)ccn4)c3)c21 [Compound I-483]
> 6.40,< 5.60,,"Cn1ncc2cccc(NS(=O)(=O)c3cnn(-c4cc(N5CC6CC6C5)ccn4)c3)c21 (stereo not drawn) [Compound I-375, 1-(4-(3-Azabicyclo[3.1.0]Hexan-3-yl)Pyridin-2-yl)-N-(1-Methyl-1H-Indazol-7-yl)-1H-Pyrazole-4-Sulfonamide]"
> 6.40,< 5.60,,CC[C@](C)(O)c1ccnc(-n2cc(S(=O)(=O)Nc3cccc4cnn(C)c34)cn2)c1 [Compound I-294]
> 6.40,< 5.60,,"COc1ccc2cnn(C)c2c1NS(=O)(=O)c1cnn(-c2cc(N3CC(C)(C)C3)ccn2)c1 [Compound I-370, 1-[4-(3,3-dimethylazetidin-1-yl)pyridin-2-yl]-N-(6-methoxy-1-methylindazol-7-yl)pyrazole-4-sulfonamide]"
6.00 to 6.40,≥ 6.40,,"CCc1ccc2cnn(C)c2c1NS(=O)(=O)c1cn(-c2ccnc(C(F)(F)F)c2)nc1C [Compound I-29, N-(6-Ethyl-1-Methyl-1H-Indazol-7-yl)-3-Methyl-1-(2-(Trifluoromethyl)Pyridin-4-yl)-1H-Pyrazole-4-Sulfonamide]"
,< 5.60,,"CCc1ccc2cnn(C)c2c1NS(=O)(=O)c1cnn(-c2cccc(C(F)(F)F)n2)c1 [Compound I-12, N-(6-Ethyl-1-Methyl-1H-Indazol-7-yl)-1-(2-(Trifluoromethyl) Pyridin-2-yl)-1H-Pyrazole-4-Sulfonamide]"
